Key:
[1] = tested on: Mus musculus; experiment: Analgesic activity in ip dosed mouse assessed as inhibition of acetic acid-induced writhing response administered 0.5 to 1 hr before acetic acid challenge; assay type: functional
[2] = target: T1, 5-hydroxytryptamine receptor 1A (Rattus norvegicus, UniProt P19327); experiment: Displacement of [3H]-8-OH-DPAT from 5HT1A receptor in rat hippocampus; assay type: tissue-based
T1 sequence (P19327 whole entry): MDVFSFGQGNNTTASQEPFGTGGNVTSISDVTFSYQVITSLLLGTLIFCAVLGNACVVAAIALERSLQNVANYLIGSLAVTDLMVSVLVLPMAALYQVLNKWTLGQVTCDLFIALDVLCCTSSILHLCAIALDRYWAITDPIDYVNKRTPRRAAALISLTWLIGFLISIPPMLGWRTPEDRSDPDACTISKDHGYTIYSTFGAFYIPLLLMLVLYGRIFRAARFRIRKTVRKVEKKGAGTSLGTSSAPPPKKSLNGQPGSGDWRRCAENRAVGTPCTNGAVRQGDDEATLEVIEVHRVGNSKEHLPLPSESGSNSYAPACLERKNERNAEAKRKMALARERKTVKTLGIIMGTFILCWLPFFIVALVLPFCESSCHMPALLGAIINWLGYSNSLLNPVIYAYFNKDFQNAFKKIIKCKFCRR

[3] = Half life in rat liver microsomes by LC/MS/MS; assay type: ADME, Microsome
[4] = target: 5-hydroxytryptamine receptor 2A (Rattus norvegicus, UniProt P14842); experiment: Displacement of [3H]-ketanserin from 5HT2A receptor in rat cortical membrane; assay type: cell membranes
Chain of 5-hydroxytryptamine receptor 2A (P14842 whole entry): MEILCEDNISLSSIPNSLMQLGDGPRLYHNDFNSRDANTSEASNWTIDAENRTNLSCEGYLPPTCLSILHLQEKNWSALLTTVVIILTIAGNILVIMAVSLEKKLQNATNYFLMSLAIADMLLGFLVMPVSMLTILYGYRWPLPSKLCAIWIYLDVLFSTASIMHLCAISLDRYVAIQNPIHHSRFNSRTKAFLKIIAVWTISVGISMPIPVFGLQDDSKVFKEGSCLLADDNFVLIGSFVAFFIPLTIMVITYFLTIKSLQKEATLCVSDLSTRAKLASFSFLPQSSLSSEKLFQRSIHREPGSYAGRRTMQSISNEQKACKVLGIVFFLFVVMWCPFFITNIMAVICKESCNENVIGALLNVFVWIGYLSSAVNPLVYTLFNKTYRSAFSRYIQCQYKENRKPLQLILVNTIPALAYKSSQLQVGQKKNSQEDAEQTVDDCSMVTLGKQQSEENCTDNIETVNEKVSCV

[5] = Half life in human liver microsomes by LC/MS/MS; assay type: ADME, Microsome
[6] = tested on: Mus musculus; experiment: Analgesic activity in mouse assessed as inhibition of acetic acid-induced writhing response at 10 mg/kg, ip administered 0.5 to 1 hr before acetic acid challenge; assay type: functional; details: route intraperitoneal
[7] = tested on: Mus musculus; experiment: Analgesic activity in mouse assessed as inhibition of acetic acid-induced writhing response at 10 mg/kg, po administered 0.5 to 1 hr before acetic acid challenge; assay type: functional
[8] = tested on: Mus musculus; experiment: Neurotoxicity in mouse at 60 mg/kg, ip by rotarod test; assay type: toxicity, organism-based; parameters: dose 60 mg/kg, route intraperitoneal; details: in vivo
[9] = tested on: Mus musculus; experiment: Neurotoxicity in mouse at 100 mg/kg, ip by rotarod test; assay type: toxicity, organism-based; parameters: dose 100 mg/kg, route intraperitoneal; details: in vivo
[10] = tested on: Mus musculus; experiment: Neurotoxicity in mouse at 50 mg/kg, ip by rotarod test; assay type: toxicity, organism-based; parameters: dose 50 mg/kg, route intraperitoneal; details: in vivo
[11] = target: 5-hydroxytryptamine receptor 2A (Rattus norvegicus) (UniProt P14842); experiment: Displacement of [3H]-ketanserin from 5HT2A receptor in rat cortical membrane at 1 uM; assay type: cell membranes
Chain of 5-hydroxytryptamine receptor 2A (Rattus norvegicus) (P14842 whole entry): as above

[12] = Neurotoxicity in po dosed mouse by rotarod test; assay type: toxicity, organism-based; details: in vivo
[13] = target: T2, 5-hydroxytryptamine receptor 1A (Rattus norvegicus) (UniProt P19327); experiment: Displacement of [3H]-8-OH-DPAT from 5HT1A receptor in rat hippocampus at 1 uM; assay type: tissue-based
T2 sequence (whole entry): T1 sequence (P19327 whole entry)

[14] = Neurotoxicity in ip dosed mouse by rotarod test; assay type: toxicity, organism-based; details: in vivo
[15] = tested on: Mus musculus; experiment: Neurotoxicity in mouse at 30 mg/kg, ip by rotarod test; assay type: toxicity, organism-based; parameters: dose 30 mg/kg, route intraperitoneal; details: in vivo

Compound | IC50 [2] [nM] | IC50 [4] [nM] | inhibition in vivo at 10 mg/kg [6] [%] | inhibition in vivo at 10 mg/kg [7] [%] | also measured
NC(=O)O[C@H](CCN1CCN(c2ccccc2)CC1)c1ccccc1 | 534 | 62 | – | – | ED50 [1]: 0.18 mg/kg; half-life [3]: 8 min; half-life [5]: 62 min
NC(=O)O[C@@H](CCN1CCN(c2ccccc2)CC1)c1ccccc1 | 772 | 1020 | 87.8 | – | –
COc1ccc(C(CCN2CCN(c3ccc(OC)cc3)CC2)OC(N)=O)cc1 (centres undefined) | – | – | – | 53 | –
NC(=O)OC(CCN1CCN(c2cccc(Cl)c2)CC1)c1ccccc1 (centres undefined) | – | – | – | – | ED50 [1]: 0.57 mg/kg; Activity [8]: Toxic
NC(=O)OC(CCN1CCN(c2cccc(C(F)(F)F)c2)CC1)c1ccccc1 (centres undefined) | – | – | 14.6 | – | Activity [9]: Toxic
O=C(CCN1CCN(c2ccccc2)CC1)c1ccccc1 | 47.5 | 1070 | 37.2 | – | –
O[C@H](CCN1CCN(c2ccccc2)CC1)c1ccccc1 | 174 | 452 | 70.1 | – | –
O[C@@H](CCN1CCN(c2ccccc2)CC1)c1ccccc1 | 495 | 289 | 66.7 | – | –
NC(=O)OC(CCN1CCN(c2ccccc2)CC1)c1ccc(F)cc1 (centres undefined) | – | – | 99 | – | Activity [10]: Non-toxic; inhibition [11]: 84.7%; TD50 [12]: 141 mg/kg; inhibition [13]: 65.5%; half-life [5]: 18 min
COc1ccc(N2CCN(CCC(OC(N)=O)c3ccccc3)CC2)cc1 (racemic) | 1980 | – | – | 72 | ED50 [1]: 0.14 mg/kg; TD50 [12]: 122 mg/kg; half-life [5]: 124 min
NC(=O)OC(CCN1CCN(c2ccccc2)CC1)c1ccccc1 (racemic) | – | – | – | – | ED50 [1]: 0.49 mg/kg; TD50 [12]: 124 mg/kg; half-life [5]: 19 min; TD50 [14]: 52.3 mg/kg
COc1ccc(N2CCN(CCC(OC(N)=O)c3ccc(Cl)cc3)CC2)cc1 (single isomer, unassigned) | – | – | – | 51 | –
COc1ccc(N2CCN(CCC(OC(N)=O)c3ccc(Cl)c(Cl)c3)CC2)cc1 (single isomer, unassigned) | – | – | – | 61 | –
COc1ccc(N2CCN(CCC(OC(N)=O)c3ccc(C)c(C)c3)CC2)cc1 (single isomer, unassigned) | – | – | – | 58 | –
COc1ccc(N2CCN(CCC(OC(N)=O)c3ccc(Cl)cc3Cl)CC2)cc1 (single isomer, unassigned) | – | – | – | 16 | –
COc1ccc(N2CCN(CCC(OC(N)=O)c3ccc(Cl)c(C(F)(F)F)c3)CC2)cc1 (single isomer, unassigned) | – | – | – | 46 | –
COc1ccc(N2CCN(CCC(OC(N)=O)c3ccc(C)cc3C)CC2)cc1 (single isomer, unassigned) | – | – | – | 62 | –
Cc1ccc(C(CCN2CCN(c3ccccc3)CC2)OC(N)=O)cc1 (single isomer, unassigned) | – | – | 100 | – | inhibition [11]: 85.6%; inhibition [13]: 59.6%
NC(=O)OC(CCN1CCN(c2ccccc2Cl)CC1)c1ccccc1 (single isomer, unassigned) | 52500 | > 100000 | – | – | –
NC(=O)OC(CCN1CCN(c2ccccc2F)CC1)c1ccccc1 (single isomer, unassigned) | – | – | – | – | TD50 [14]: 44.7 mg/kg
Cc1ccccc1N1CCN(CCC(OC(N)=O)c2ccccc2)CC1 (single isomer, unassigned) | 149 | 78.3 | – | – | –
COc1ccccc1N1CCN(CCC(OC(N)=O)c2ccccc2)CC1 (single isomer, unassigned) | – | – | – | – | ED50 [1]: 0.67 mg/kg; Activity [15]: Toxic
COc1cccc(N2CCN(CCC(OC(N)=O)c3ccccc3)CC2)c1 (single isomer, unassigned) | – | – | 55 | – | –
